# From ChEMBL document CHEMBL1909046, “DrugMatrix in vitro pharmacology data”
# How the values were obtained:
# [1] = target: Melanocortin receptor 3 (Homo sapiens, UniProt P41968); assay type: cell membranes, Membrane; settings: hek293; also: in other assays of this panel Not Active means under 50% inhibition at 10 µM
# [2] = target: Tyrosine-protein kinase Fyn (Homo sapiens, UniProt P06241); test: biochemical; assay type: cell-based, Insect cells;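 also: enzymatic inhibition of Fyn kinase activity measured with Poly(Glu:Tyr) as the phosphorylation substrate; in other assays of this panel Not Active means under 50% inhibition at 10 µM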
# [3] = target: Adenosine receptor A2a (Homo sapiens, UniProt P29274); test: DRUGMATRIX: Adenosine A2A radioligand binding (ligand: […]); assay type: cell membranes, HEK293, Membrane; settings: Not Active = under 50% inhibition at 10 µM
# [4] = target: T1, Androgen receptor (Rattus norvegicus, UniProt P15207); also: in other assays of this panel Not Active means under 50% inhibition at 10 µM
# T1 sequence (P15207 whole entry): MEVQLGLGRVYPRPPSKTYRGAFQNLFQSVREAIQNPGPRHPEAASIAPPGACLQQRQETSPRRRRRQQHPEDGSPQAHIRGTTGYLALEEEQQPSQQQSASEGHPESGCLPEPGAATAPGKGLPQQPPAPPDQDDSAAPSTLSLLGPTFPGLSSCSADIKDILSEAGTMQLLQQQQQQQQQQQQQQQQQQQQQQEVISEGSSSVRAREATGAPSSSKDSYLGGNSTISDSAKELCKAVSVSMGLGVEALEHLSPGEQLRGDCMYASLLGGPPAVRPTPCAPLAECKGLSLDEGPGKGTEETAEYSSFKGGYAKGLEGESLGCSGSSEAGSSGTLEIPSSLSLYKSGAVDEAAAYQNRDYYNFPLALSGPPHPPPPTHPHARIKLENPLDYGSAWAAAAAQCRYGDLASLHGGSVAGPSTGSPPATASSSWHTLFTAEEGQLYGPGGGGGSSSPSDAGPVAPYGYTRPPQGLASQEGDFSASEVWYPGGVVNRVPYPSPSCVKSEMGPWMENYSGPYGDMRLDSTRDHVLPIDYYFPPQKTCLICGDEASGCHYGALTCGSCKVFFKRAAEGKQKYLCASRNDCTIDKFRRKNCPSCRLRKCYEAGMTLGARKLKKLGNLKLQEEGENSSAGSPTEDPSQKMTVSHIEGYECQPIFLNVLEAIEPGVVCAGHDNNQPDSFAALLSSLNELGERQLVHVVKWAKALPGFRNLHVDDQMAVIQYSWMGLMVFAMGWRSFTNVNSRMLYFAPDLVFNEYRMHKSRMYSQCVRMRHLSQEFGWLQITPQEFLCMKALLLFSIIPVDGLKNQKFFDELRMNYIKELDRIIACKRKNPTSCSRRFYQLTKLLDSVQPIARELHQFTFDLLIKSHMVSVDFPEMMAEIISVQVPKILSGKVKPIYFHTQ
# [5] = target: T2, Glucocorticoid receptor (Homo sapiens, UniProt P04150); settings: hela s3; also: in other assays of this panel Not Active means under 50% inhibition at 10 µM
# T2 sequence (P04150 whole entry): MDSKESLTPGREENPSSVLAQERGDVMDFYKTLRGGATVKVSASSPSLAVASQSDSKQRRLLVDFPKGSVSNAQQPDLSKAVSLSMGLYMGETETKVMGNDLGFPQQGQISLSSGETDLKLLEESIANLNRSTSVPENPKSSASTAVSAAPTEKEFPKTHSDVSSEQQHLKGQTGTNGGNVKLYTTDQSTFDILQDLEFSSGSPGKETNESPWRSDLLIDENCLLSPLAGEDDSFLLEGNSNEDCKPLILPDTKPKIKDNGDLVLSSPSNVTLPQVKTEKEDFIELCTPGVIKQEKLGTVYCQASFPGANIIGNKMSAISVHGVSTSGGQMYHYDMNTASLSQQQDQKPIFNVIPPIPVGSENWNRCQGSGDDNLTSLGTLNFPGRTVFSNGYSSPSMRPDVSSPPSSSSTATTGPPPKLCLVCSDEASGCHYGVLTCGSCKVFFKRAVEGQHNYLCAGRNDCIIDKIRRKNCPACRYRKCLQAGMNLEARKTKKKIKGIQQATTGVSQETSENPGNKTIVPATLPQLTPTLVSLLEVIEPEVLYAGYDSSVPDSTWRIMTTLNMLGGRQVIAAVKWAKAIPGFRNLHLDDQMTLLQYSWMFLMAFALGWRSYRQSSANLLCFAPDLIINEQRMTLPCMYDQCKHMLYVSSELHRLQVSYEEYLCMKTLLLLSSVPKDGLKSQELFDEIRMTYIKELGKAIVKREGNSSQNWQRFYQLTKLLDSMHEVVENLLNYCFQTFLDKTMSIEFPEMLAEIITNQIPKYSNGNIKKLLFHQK
# [6] = target: T2, Glucocorticoid receptor; test: biochemical
# Sequence of Tyrosine-protein kinase Fyn (P06241 whole entry): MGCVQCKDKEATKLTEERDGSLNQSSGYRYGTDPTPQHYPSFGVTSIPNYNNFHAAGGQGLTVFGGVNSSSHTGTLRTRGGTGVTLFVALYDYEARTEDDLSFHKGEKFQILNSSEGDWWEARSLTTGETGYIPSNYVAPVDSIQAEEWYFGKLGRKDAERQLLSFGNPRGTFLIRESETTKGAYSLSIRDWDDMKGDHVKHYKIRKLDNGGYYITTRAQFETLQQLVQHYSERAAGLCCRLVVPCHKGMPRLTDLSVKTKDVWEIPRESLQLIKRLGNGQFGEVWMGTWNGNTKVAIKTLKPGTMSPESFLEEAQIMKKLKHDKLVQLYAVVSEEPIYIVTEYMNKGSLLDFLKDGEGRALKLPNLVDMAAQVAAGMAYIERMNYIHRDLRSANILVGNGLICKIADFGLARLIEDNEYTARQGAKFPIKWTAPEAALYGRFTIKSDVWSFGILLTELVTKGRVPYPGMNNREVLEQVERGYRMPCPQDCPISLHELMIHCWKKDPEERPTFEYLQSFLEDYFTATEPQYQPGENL
# Sequence of Adenosine receptor A2a (P29274 whole entry): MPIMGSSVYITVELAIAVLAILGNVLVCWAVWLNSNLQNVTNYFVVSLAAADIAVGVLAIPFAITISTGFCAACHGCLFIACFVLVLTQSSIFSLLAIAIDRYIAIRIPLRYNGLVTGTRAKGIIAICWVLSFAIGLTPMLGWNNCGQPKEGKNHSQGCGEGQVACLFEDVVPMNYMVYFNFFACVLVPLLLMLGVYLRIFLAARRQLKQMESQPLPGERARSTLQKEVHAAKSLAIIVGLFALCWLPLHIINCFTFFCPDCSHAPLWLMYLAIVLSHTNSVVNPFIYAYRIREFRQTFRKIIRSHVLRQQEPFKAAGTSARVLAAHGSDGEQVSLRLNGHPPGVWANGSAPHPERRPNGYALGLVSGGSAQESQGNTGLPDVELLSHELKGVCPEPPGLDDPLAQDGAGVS
# Sequence of Melanocortin receptor 3 (P41968 whole entry): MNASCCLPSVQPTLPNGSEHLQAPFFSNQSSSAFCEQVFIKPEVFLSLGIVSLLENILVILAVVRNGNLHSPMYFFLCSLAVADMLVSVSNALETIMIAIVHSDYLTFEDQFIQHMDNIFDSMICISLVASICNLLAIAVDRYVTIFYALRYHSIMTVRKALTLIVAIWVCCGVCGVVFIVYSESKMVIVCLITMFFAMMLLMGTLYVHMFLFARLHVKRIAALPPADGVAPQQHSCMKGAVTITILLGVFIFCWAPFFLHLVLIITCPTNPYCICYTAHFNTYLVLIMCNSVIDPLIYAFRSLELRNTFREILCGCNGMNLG
Compound,IC50 [1],IC50 ([2]; insect cells),IC50 ([3]; hek293),IC50 [4],IC50 [5],other results
Nn1nnc2ccccc21,Not Active,Not Active,Not Active,Not Active,Not Active,–
"Clc1cc2c(cc1Cl)Oc1cc(Cl)c(Cl)cc1O2 [2,3,7,8-TETRACHLORODIBENZO-P-DIOXIN]",Not Active,Not Active,Not Active,Not Active,Not Active,–
CCCCCC[C@H]1C(=O)O[C@H](C)[C@H](NC(=O)c2cccc(NC=O)c2O)C(=O)O[C@@H](C)[C@@H]1OC(=O)CC(C)C [ANTIMYCIN A],Not Active,Not Active,Not Active,Not Active,Not Active,–
C[C@@H]1CC[C@H]2[C@@H](C)C(=O)O[C@@H]3O[C@@]4(C)CC[C@@H]1[C@]32OO4 [ARTEMISININ],Not Active,Not Active,Not Active,Not Active,Not Active,–
CC(C)(C)c1ccc(S(=O)(=O)/C=C/C#N)cc1 [BAY-11-7085],Not Active,Not Active,Not Active,Not Active,Not Active,–
CCc1oc2ccccc2c1C(=O)c1cc(Br)c(O)c(Br)c1 [BENZBROMARONE],Not Active,Not Active,Not Active,Not Active,Not Active,–
O=c1cc(-c2ccccc2)oc2ccc3ccccc3c12 [BETA-NAPHTHOFLAVONE],Not Active,–,Not Active,Not Active,–,IC50 ([2]; read-out: IC50): 2510 nM
CC(C)(Oc1ccc(C2CC2(Cl)Cl)cc1)C(=O)O (configuration not stated) [CIPROFIBRATE],Not Active,Not Active,Not Active,Not Active,Not Active,–
C#C[C@]1(O)CC[C@H]2[C@@H]3CCc4cc(O)ccc4[C@H]3CC[C@@]21C [ETHINYL ESTRADIOL],Not Active,Not Active,–,–,–,IC50 ([3]; read-out: IC50): 20900 nM; Ki ([3]; read-out: Ki): 11800 nM; IC50 [6]: 1710 nM; Ki [6]: 777 nM
OCCO [ETHYLENE GLYCOL],Not Active,Not Active,Not Active,Not Active,–,–
CC(=O)OCC(CCn1cnc2cnc(N)nc21)COC(C)=O [FAMCICLOVIR],Not Active,Not Active,Not Active,Not Active,Not Active,–
O=C(O)Cc1ccc(-c2ccccc2)cc1 [FELBINAC],Not Active,Not Active,Not Active,Not Active,Not Active,–
Cc1cn[nH]c1 [FOMEPIZOLE],Not Active,Not Active,Not Active,Not Active,Not Active,–
C[C@H]([C@](O)(Cn1cncn1)c1ccc(F)cc1F)S(C)(=O)=O [GENACONAZOLE],Not Active,Not Active,Not Active,Not Active,Not Active,–
COc1ccccc1OCC(O)CO (configuration not stated) [GUAIFENESIN],Not Active,Not Active,Not Active,Not Active,–,–
N=C(N)N/N=C/c1c(Cl)cccc1Cl [GUANABENZ],Not Active,Not Active,Not Active,Not Active,–,–

Compound,IC50 [1],IC50 ([2]; insect cells),IC50 ([3]; hek293),IC50 [4],IC50 [5],other results
C[C@]12CCC(=O)C=C1CC[C@@H]1[C@@H]2[C@@H](O)C[C@@]2(C)[C@H]1CC[C@]2(O)C(=O)CO [HYDROCORTISONE],Not Active,Not Active,Not Active,Not Active,–,–
Cc1cccc(Nc2ccccc2C(=O)O)c1C [MEFENAMIC ACID],Not Active,Not Active,Not Active,–,Not Active,–
CC(=O)O[C@]1(C(C)=O)CC[C@H]2[C@@H]3C=C(C)C4=CC(=O)CC[C@]4(C)[C@H]3CC[C@@]21C [MEGESTROL ACETATE],Not Active,Not Active,Not Active,–,–,IC50 [6]: 19 nM; Ki [6]: 8.77 nM
COc1ccccc1OCC(O)COC(N)=O (configuration not stated) [METHOCARBAMOL],Not Active,Not Active,Not Active,–,Not Active,–
CN(Cc1cnc2nc(N)nc(N)c2n1)c1ccc(C(=O)N[C@@H](CCC(=O)O)C(=O)O)cc1 [METHOTREXATE],Not Active,Not Active,Not Active,Not Active,–,–
COc1ccc2cc(CCC(C)=O)ccc2c1 [NABUMETONE],Not Active,Not Active,Not Active,–,Not Active,–
CNC(=C[N+](=O)[O-])NCCSCc1csc(CN(C)C)n1 [NIZATIDINE],Not Active,Not Active,Not Active,Not Active,Not Active,–
C[C@]12C/C(=C/O)C(=O)C[C@@H]1CC[C@@H]1[C@@H]2CC[C@@]2(C)[C@H]1CC[C@]2(C)O [OXYMETHOLONE],Not Active,Not Active,Not Active,–,Not Active,–
OCCN1CCN(CCCN2c3ccccc3Sc3ccc(Cl)cc32)CC1 [PERPHENAZINE],Not Active,Not Active,Not Active,–,Not Active,–
CCCCC1C(=O)N(c2ccccc2)N(c2ccccc2)C1=O [PHENYLBUTAZONE],Not Active,Not Active,Not Active,–,Not Active,–
Cc1cccc(Nc2cc(Cl)nc(SCC(=O)O)n2)c1C [PIRINIXIC ACID],Not Active,Not Active,Not Active,Not Active,Not Active,–
CC[C@H](C)C(=O)O[C@H]1C[C@H](O)C=C2C=C[C@H](C)[C@H](CC[C@@H](O)C[C@@H](O)CC(=O)O)[C@H]21 [PRAVASTATIN],Not Active,Not Active,Not Active,–,Not Active,–
CC(C)(Sc1cc(C(C)(C)C)c(O)c(C(C)(C)C)c1)Sc1cc(C(C)(C)C)c(O)c(C(C)(C)C)c1 [PROBUCOL],Not Active,Not Active,Not Active,–,Not Active,–
COBALT(II) ACETYLACETONATE,Not Active,Not Active,Not Active,Not Active,Not Active,Ki [1]: Not Active; Ki ([2]; insect cells): Not Active; Ki ([3]; hek293): Not Active; Ki [4]: Not Active; Ki [5]: Not Active
INSULIN HUMAN,Not Active,Not Active,Not Active,Not Active,Not Active,Ki [1]: Not Active; Ki ([2]; insect cells): Not Active; Ki ([3]; hek293): Not Active; Ki [4]: Not Active; Ki [5]: Not Active
POLYVINYL ALCOHOL,Not Active,Not Active,Not Active,Not Active,Not Active,Ki [1]: Not Active; Ki ([2]; insect cells): Not Active; Ki ([3]; hek293): Not Active; Ki [4]: Not Active; Ki [5]: Not Active
